This note sets out measurements from patent US7863446B2, “Heterocycles” (Orchid Research Laboratories Limited, priority 2006, dated 2011).

Each structure is given as a SMILES string.

This assay relates to PDE4. As to the kind of experiment: PDE4 activity. It counts as biochemical. Conditions: source Human U937 cells. As for the experimental part:
PDE4 Activity PDE4 inhibition was measured by following a literature assay procedure (Cortizo J et al., Br J Pharmacol., 1993, 108: 562-568. The assay method involves the following conditions. • Source: Human U937 cells • Substrate: 1.01 μM [^3H] camp+camp • Vehicle: 1% DMSO • Pre-Incubation Time/Temperature: 15 minutes at 25° C. • Incubation Time/Temperature. 20 minutes at 25° C. • Incubation buffer: 50 mM Tris-HCl, pH 7.5, 5 mM MgCl2 • Quantitation method: Quantitation of [^3H] Adenosine • Significance criteria: >50% of max stimulation or inhibition The results are tabulated as shown in the table XIII.
Turning to `N#CCCN1CCN(c2nc(C(F)(F)F)nc(-c3ccc(F)cc3)c2-c2cccc(S(N)(=O)=O)c2)CC1` [Example 99, 3-{4-[4-(2-Cyanoethyl)piperazin-1-yl]-6-(4-fluorophenyl)-2-(trifluoromethyl)pyrimidin-5-yl}benzenesulfonamide], the “PDE4 inhibition at 10 μM (%)” value is 92%.
Next, `NS(=O)(=O)c1cccc(-c2c(-c3ccc(F)cc3)nc(C(F)(F)F)nc2N2CCN(C(=O)C(F)(F)F)CC2)c1` [Example 108, 3-{6-(4-Fluorophenyl)-4-[4-(trifluoroacetyl)piperazin-1-yl]-2-(trifluoromethyl)pyrimidin-5-yl}benzenesulfonamide]: 90%; `NS(=O)(=O)c1cccc(-c2nc(C(F)(F)F)nc(-n3ccnc3)c2-c2ccccc2)c1` [Example 166, 3-[4-(1H-imidazol-1-yl)-5-phenyl-2-(trifluoromethyl)pyrimidin-6-yl]benzenesulfonamide]: 82%.
Then `NS(=O)(=O)c1cccc(-c2c(-c3ccccc3)nc(C(F)(F)F)nc2N2CCN(C(=O)C(F)(F)F)CC2)c1` [Example 172, 3-{6-Phenyl-4-[4-(trifluoroacetyl)piperazin-1-yl]-2-(trifluoromethyl)pyrimidin-5-yl}benzenesulfonamide], with 87%; and `Fc1ccc(-c2nc(C(F)(F)F)nc(NC3CC3)c2-c2ccccc2)cc1` [Example 174, N-Cyclopropyl-6-(4-fluorophenyl)-5-phenyl-2-(trifluoromethyl)pyrimidin-4-amine], with 88%; and `NS(=O)(=O)c1cccc(-c2c(-c3ccccc3)nc(C(F)(F)F)nc2N2CCC(=O)CC2)c1` [Example 178, 3-[6-Phenyl-4-(4-oxopiperidin-1-yl)-2-(trifluoromethyl)pyrimidin-5-yl]benzenesulfonamide], with 84%.
